This note sets out measurements from patent US9751869B2, “LXR modulators” (BRISTOL-MYERS SQUIBB COMPANY, priority 2013, dated 2017).

Each structure is given as a SMILES string.

The target in the assay is T1, LXRβ (Homo sapiens, UniProt P55055).
T1 construct: Co-transfection expression plasmids, comprising full-length LXRα (pCMX-h LXRα or LXRβ (pCMX-hLXRβ)); expressed in transfected cells; host or cells: CV-1 African green monkey kidney cells, transient transfection with pCMX-hLXRβ
T1 sequence (P55055 1-460): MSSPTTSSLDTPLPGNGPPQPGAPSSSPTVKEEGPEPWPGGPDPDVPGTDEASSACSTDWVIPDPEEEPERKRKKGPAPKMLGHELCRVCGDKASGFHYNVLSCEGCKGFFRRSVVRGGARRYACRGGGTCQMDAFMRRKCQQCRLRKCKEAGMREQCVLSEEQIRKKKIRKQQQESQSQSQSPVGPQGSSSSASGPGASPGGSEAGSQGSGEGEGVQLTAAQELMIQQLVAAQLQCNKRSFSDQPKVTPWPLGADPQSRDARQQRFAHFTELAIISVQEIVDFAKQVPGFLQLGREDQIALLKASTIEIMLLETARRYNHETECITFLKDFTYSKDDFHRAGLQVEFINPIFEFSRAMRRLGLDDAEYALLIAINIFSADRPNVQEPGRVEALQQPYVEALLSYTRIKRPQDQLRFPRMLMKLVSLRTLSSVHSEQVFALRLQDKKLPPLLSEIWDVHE
T1 sequence (P19793 1-462 partner): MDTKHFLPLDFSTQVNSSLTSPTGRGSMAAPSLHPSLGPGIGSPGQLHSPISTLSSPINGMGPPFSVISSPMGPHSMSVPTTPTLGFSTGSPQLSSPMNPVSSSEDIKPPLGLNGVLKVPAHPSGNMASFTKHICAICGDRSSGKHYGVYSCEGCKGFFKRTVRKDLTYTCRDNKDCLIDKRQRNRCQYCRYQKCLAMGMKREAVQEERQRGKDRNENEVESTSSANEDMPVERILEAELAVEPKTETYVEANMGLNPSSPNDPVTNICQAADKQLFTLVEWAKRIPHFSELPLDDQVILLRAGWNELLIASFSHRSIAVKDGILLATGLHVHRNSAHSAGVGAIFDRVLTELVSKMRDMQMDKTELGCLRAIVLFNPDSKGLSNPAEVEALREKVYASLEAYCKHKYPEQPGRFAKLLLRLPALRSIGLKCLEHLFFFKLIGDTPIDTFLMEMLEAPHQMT
Nature of the assay: LXR/LXRE co-transfection assay (luciferase reporter) in CV-1 cells, LXRβ. It counts as cell-based. Particulars: for EC50: CV-1 cells transfected with pCMX-hLXRβ and LXREx1-Tk-Luciferase, 20 hours incubation, read-out: LXRbeta agonism EC50; for Emax / LXRbeta % EFFICACY: CV-1 cells, relative to maximum response of high control N-(3-((4-fluorophenyl)-(naphthalene-2-sulfonyl)amino)propyl)-2,2-dimethylpropionamide; for Emax: read-out: LXRbeta % EFFICACY
In a few lines:
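Luciferase read-out after 20 h compound treatment at 37 °C of CV-1 cells carrying transfected hLXRβ plus one-copy LXRE reporter, endogenous RXR partnering. Sigmoidal fit of 10-point half-log curves (4 wells each) gave EC50; % efficacy versus maximal response of the propionamide reference agonist.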
On the technique in general: Reporter assays use an easily measured gene product as a stand-in for the process of interest.

Broadly, the EC50 is the concentration that produces a half-maximal response. Consider `Cc1nc(-c2ccc3c(c2)OC(F)(F)O3)c(-c2cc(-c3cc(F)c(CO)c(S(C)(=O)=O)c3)ccc2-c2cc(C(F)(F)C(=O)NCC(F)(F)F)nn2C)o1` [Example 90, 2-(5-(3-(4-(2,2-difluorobenzo[d][1,3]dioxol-5-yl)-2-methyloxazol-5-yl)-3′-fluoro-4′-(hydroxymethyl)-5′-(methylsulfonyl)biphenyl-4-yl)-1-methyl-1H-pyrazol-3-yl)-2,2-difluoro-N-(2,2,2-trifluoroethyl)acetamide], for which the EC50 was found to be 58 nM and the Emax is 34%.
Taken in the same sequence, the figures for `CNC(=O)C(F)(F)c1cc(-c2ccc(-c3cc(F)c(CO)c(S(C)(=O)=O)c3)cc2-c2nc(C)oc2-c2ccc3c(c2)OC(F)(F)O3)n(C)n1` [Example 91, 2-(5-(3-(5-(2,2-difluorobenzo[d][1,3]dioxol-5-yl)-2-methyloxazol-4-yl)-3′-fluoro-4′-(hydroxymethyl)-5′-(methylsulfonyl)biphenyl-4-yl)-1-methyl-1H-pyrazol-3-yl)-2,2-difluoro-N-methylacetamide] were 135 nM and 45%.
Taken in the same sequence, the figures for `Cc1nc(-c2ccc3c(c2)OC(F)(F)O3)c(-c2cc(-c3cc(F)c(CO)c(S(C)(=O)=O)c3)ccc2-c2cc(C(C)(C)O)nn2C)o1` [Example 92, 2-(5-(3-(4-(2,2-difluorobenzo[d][1,3]dioxol-5-yl)-2-methyloxazol-5-yl)-3′-fluoro-4′-(hydroxymethyl)-5′-(methylsulfonyl)biphenyl-4-yl)-1-methyl-1H-pyrazol-3-yl)propan-2-ol] were 105 nM and 38%.
`Cc1nc(-c2ccc(OC(F)(F)F)cc2)c(-c2cc(-c3cc(F)c(CO)c(S(C)(=O)=O)c3)ccc2-c2cc(C(F)(F)F)nn2C)o1` [Example 93, (3-fluoro-4′-(1-methyl-3-(trifluoromethyl)-1H-pyrazol-5-yl)-3′-(2-methyl-4-(4-(trifluoromethoxy)phenyl)oxazol-5-yl)-5-(methylsulfonyl)biphenyl-4-yl)methanol]: the EC50 amounted to 16 nM and the Emax was 93%.
With `Cc1nc(-c2ccc3c(c2)OC(F)(F)O3)c(-c2cc(-c3cccc(S(C)(=O)=O)c3)ccc2-c2cc(C(C)(F)F)nn2C)o1` [Example 94, 4-(2,2-difluorobenzo[d][1,3]dioxol-5-yl)-5-(4-(3-(1,1-difluoroethyl)-1-methyl-1H-pyrazol-5-yl)-3′-(methylsulfonyl)biphenyl-3-yl)-2-methyloxazole], the EC50 turned out to be 32 nM and the Emax amounted to 87%.
As for `Cc1nc(-c2ccc3c(c2)OC(F)(F)O3)c(-c2cc(-c3cc(F)c(CO)c(S(C)(=O)=O)c3)ccc2-c2cc(C(C)(F)F)nn2C)o1` [Example 95, (3′-(4-(2,2-difluorobenzo[d][1,3]dioxol-5-yl)-2-methyloxazol-5-yl)-4′-(3-(1,1-difluoroethyl)-1-methyl-1H-pyrazol-5-yl)-3-fluoro-5-(methylsulfonyl)biphenyl-4-yl)methanol], the EC50 turned out to be 19 nM and the Emax was determined as 65%.
For `Cc1nc(-c2ccc3c(c2)OC(F)(F)O3)c(-c2cc(-c3cccc(S(C)(=O)=O)c3)ccc2-c2cc(C(C)(C)C(N)=O)nn2C)o1` [Example 96, 2-(5-(3-(4-(2,2-difluorobenzo[d][1,3]dioxol-5-yl)-2-methyloxazol-5-yl)-3′-(methylsulfonyl)biphenyl-4-yl)-1-methyl-1H-pyrazol-3-yl)-2-methylpropanamide], the EC50 worked out at 126 nM and the Emax came to 61%.
In the case of `Cc1nc(-c2ccc3c(c2)OC(F)(F)O3)c(-c2cc(-c3cc(F)c(CO)c(S(C)(=O)=O)c3)ccc2-c2cc(C(C)(C)C#N)nn2C)o1` [Example 97, 2-(5-(3-(4-(2,2-difluorobenzo[d][1,3]dioxol-5-yl)-2-methyloxazol-5-yl)-3′-fluoro-4′-(hydroxymethyl)-5′-(methylsulfonyl)biphenyl-4-yl)-1-methyl-1H-pyrazol-3-yl)-2-methylpropanenitrile], the EC50 is 48 nM and the Emax stood at 82%.
Taken in the same sequence, the figures for `Cc1nc(-c2ccc3c(c2)OC(F)(F)O3)c(-c2cc(-c3cccc(S(C)(=O)=O)c3)ccc2-c2cc(CO)nn2C)o1` [Example 98, (5-(3-(4-(2,2-difluorobenzo[d][1,3]dioxol-5-yl)-2-methyloxazol-5-yl)-3′-(methylsulfonyl)-[1,1′-biphenyl]-4-yl)-1-methyl-1H-pyrazol-3-yl)methanol] were 258 nM and 57%.
In the case of `Cc1nc(-c2ccc3c(c2)OC(F)(F)O3)c(-c2cc(-c3cc(F)c(CO)c(S(C)(=O)=O)c3)ccc2-c2cc(CO)nn2C)o1` [Example 99, (5-(3-(4-(2,2-difluorobenzo[d][1,3]dioxol-5-yl)-2-methyloxazol-5-yl)-3′-fluoro-4′-(hydroxymethyl)-5′-(methylsulfonyl)-[1,1′-biphenyl]-4-yl)-1-methyl-1H-pyrazol-3-yl)methanol], the EC50 came out at 279 nM and the Emax turned out to be 26%.
As for `Cc1nc(-c2ccc3c(c2)OC(F)(F)O3)c(-c2cc(-c3cccc(S(C)(=O)=O)c3)ccc2-c2cc(-c3nnco3)nn2C)o1` [Example 100, 2-(5-(3-(4-(2,2-difluorobenzo[d][1,3]dioxol-5-yl)-2-methyloxazol-5-yl)-3′-(methylsulfonyl)-[1,1′-biphenyl]-4-yl)-1-methyl-1H-pyrazol-3-yl)-1,3,4-oxadiazole], the EC50 stood at 193 nM and the Emax amounted to 52%.
Consider `Cc1nc(-c2ccc3c(c2)OC(F)(F)O3)c(-c2cc(-c3cccc(S(C)(=O)=O)c3)ccc2-c2cc(C(C)O)nn2C)o1` (stereo not shown) [Example 101, 1-(5-(3-(4-(2,2-difluorobenzo[d][1,3]dioxol-5-yl)-2-methyloxazol-5-yl)-3′-(methylsulfonyl)-[1,1′-biphenyl]-4-yl)-1-methyl-1H-pyrazol-3-yl)ethanol], for which the EC50 was determined as 79 nM and the “LXRbeta % EFFICACY” value is on record as 50%.
As for `Cc1nc(-c2ccc3c(c2)OC(F)(F)O3)c(-c2cc(-c3cccc(S(C)(=O)=O)c3)ccc2-c2cc(C(C)O)nn2C)o1` (stereo not shown) [Example 102], the EC50 amounted to 227 nM and the “LXRbeta % EFFICACY” value was 96%.
For `Cc1nc(-c2ccc3c(c2)OC(F)(F)O3)c(-c2cc(-c3cc(F)c(CO)c(S(C)(=O)=O)c3)ccc2-c2cc(C(C)O)nn2C)o1` (stereo not shown) [Example 103, 1-(5-(3-(4-(2,2-difluorobenzo[d][1,3]dioxol-5-yl)-2-methyloxazol-5-yl)-3′-fluoro-4′-(hydroxymethyl)-5′-(methylsulfonyl)-[1,1′-biphenyl]-4-yl)-1-methyl-1H-pyrazol-3-yl)ethanol], the EC50 was determined as 148 nM and the Emax came to 47%.
In the case of `Cc1nc(-c2ccc3c(c2)OC(F)(F)O3)c(-c2cc(-c3cc(F)c(CO)c(S(C)(=O)=O)c3)ccc2-c2cc(C(C)O)nn2C)o1` (stereo not shown) [Example 104, 1-(5-(3-(4-(2,2-difluorobenzo[d][1,3]dioxol-5-yl)-2-methyloxazol-5-yl)-3′-fluoro-4′-(hydroxymethyl)-5′-(methylsulfonyl)-[1,1′-biphenyl]-4-yl)-1-methyl-1H-pyrazol-3-yl)ethanol], the concentration giving a half-maximal response (EC50) came out at 54 nM and the “LXRbeta % EFFICACY” value worked out at 56%.
With `Cc1nc(-c2ccc3c(c2)OC(F)(F)O3)c(-c2cc(-c3cc(F)c(CO)c(S(C)(=O)=O)c3)ccc2-c2cc(C(F)(F)CO)nn2C)o1` [Example 105, 2-(5-(3-(4-(2,2-difluorobenzo[d][1,3]dioxol-5-yl)-2-methyloxazol-5-yl)-3′-fluoro-4′-(hydroxymethyl)-5′-(methylsulfonyl)-[1,1′-biphenyl]-4-yl)-1-methyl-1H-pyrazol-3-yl)-2,2-difluoroethanol], the EC50 is 74 nM and the Emax stood at 66%.
With `Cc1nc(-c2ccc3c(c2)OC(F)(F)O3)c(-c2cc(-c3cccc(S(C)(=O)=O)c3)ccc2-c2cc(C(F)(F)CO)nn2C)o1` [Example 106, 2-(5-(3-(4-(2,2-difluorobenzo[d][1,3]dioxol-5-yl)-2-methyloxazol-5-yl)-3′-(methylsulfonyl)-[1,1′-biphenyl]-4-yl)-1-methyl-1H-pyrazol-3-yl)-2,2-difluoroethanol], the EC50 was found to be 71 nM and the Emax is 64%.
